Source: patent US11911497B2, “Rebaudioside E and food products sweetened with rebaudioside E” (Conagen Inc., priority 2013, dated 2024)

Experiments:
[1] = Standard sweetness test, panelists rate sweetness (Brix) of solutions in water; parameters: species or system human; details: for Brix (average): average of all panelists
Procedure: (§1) A standard sweetness test method was employed. Briefly, training sample solutions made of sucrose in water at 1-5% concentration (Brix) at 1% increments were prepared. Reb-E test samples were made of Reb-E in water at 20-60 ppm (parts per million). Panelists were trained to recognize and differentiate between each training solution. Three test solutions of known sucrose concentrations were given to panelists to ensure equal training and to establish a baseline.
(§2) Test solutions were randomized using a random number generator. Two sets of tests were generated for each panelist. Saltine crackers were provided along with water for wash out between test solutions. Each panelist rated each of the solutions according to sweetness (in Brix) and sourness (yes or no). The intensity of each attribute was also collected.

[2] = Sourness test, panelists detect presence of sourness by yes or no rating; parameters: species or system human
Procedure: as §1, §2
The ability of Reb-E to overcome sourness was also measured, and compared to sucrose. Panelists were asked to detect the presence of sourness by a yes or no rating.

[3] = Reb-E 20 PPM + 0.6% citric acid
[4] = Reb-E 40 PPM + 0.6% citric acid
[5] = Reb-E 50 PPM + 0.6% citric acid
[6] = Reb-E 60 PPM + 0.6% citric acid
[7] = sucrose 10 ×1000 PPM (1%) + 0.6% citric acid
[8] = sucrose 20 ×1000 PPM (2%) + 0.6% citric acid
[9] = sucrose 30 ×1000 PPM (3%) + 0.6% citric acid
[10] = sucrose 40 ×1000 PPM (4%) + 0.6% citric acid

## C=C1C[C@@]23CCC4[C@](C)(C(=O)OC5OC(CO)C(O)C(O)C5OC5OC(CO)C(O)C(O)C5O)CCC[C@@]4(C)[C@@H]2CCC1(OC1OC(CO)C(O)C(O)C1OC1OC(CO)C(O)C(O)C1O)C3 (stereo partly drawn) [Reb-E, 13-[(2-O-β-D-glucopyranosyl-β-D-glucopyranosyl)oxy] ent-kaur-16-en-19-oic acid-(2-O-β-D-glucopyranosyl-β-D-glucopyranosyl) ester]
[1]; Reb-E 20-60 ppm
  Correlation between sweetness and concentration (FIG. 1): near linear correlation
[1]; Reb-E 20 PPM in water + 0.6% citric acid
  Brix (average): 1.2 Brix
[1]; Reb-E 40 PPM in water + 0.6% citric acid
  Brix (average): 2.1 Brix
[1]; Reb-E 50 PPM in water + 0.6% citric acid
  Brix (average): 2.2 Brix
[1]; Reb-E 60 PPM in water + 0.6% citric acid
  Brix (average): 2.6 Brix
[2]; [3]
  Sourness detected: No (number of ratings): 2
  Sourness detected: Yes (number of ratings): 10
[2]; [4]
  Sourness detected: No (number of ratings): 2
  Sourness detected: Yes (number of ratings): 4
[2]; [5]
  Sourness detected: No (number of ratings): 1
  Sourness detected: Yes (number of ratings): 11
[2]; [6]
  Sourness detected: No (number of ratings): 0
  Sourness detected: Yes (number of ratings): 6
[2]; within the tested range
  Effectiveness in covering the sourness compared to sucrose solutions: not as effective in covering the sourness as compared to sucrose solutions

## OC[C@H]1O[C@@](CO)(O[C@H]2O[C@H](CO)[C@@H](O)[C@H](O)[C@H]2O)[C@@H](O)[C@@H]1O [Sucrose, sucrose, reference compound]
[1]; sucrose 10 ×1000 PPM (1%) in water + 0.6% citric acid
  Brix (average): 1.3 Brix
[1]; sucrose 20 ×1000 PPM (2%) in water + 0.6% citric acid
  Brix (average): 2.6 Brix
[1]; sucrose 30 ×1000 PPM (3%) in water + 0.6% citric acid
  Brix (average): 3.4 Brix
[1]; sucrose 40 ×1000 PPM (4%) in water + 0.6% citric acid
  Brix (average): 5.2 Brix
[2]; [7]
  Sourness detected: No (number of ratings): 4
  Sourness detected: Yes (number of ratings): 8
[2]; [8]
  Sourness detected: No (number of ratings): 2
  Sourness detected: Yes (number of ratings): 4
[2]; [9]
  Sourness detected: No (number of ratings): 5
  Sourness detected: Yes (number of ratings): 1
[2]; [10]
  Sourness detected: No (number of ratings): 2
  Sourness detected: Yes (number of ratings): 4
